Data published in ChEMBL document CHEMBL3580659, “One-pot multicomponent synthesis of indole incorporated thiazolylcoumarins and their antibacterial, anticancer and DNA cleavage studies” (2015).

What was measured:
Format in all cases: functional
MDA-MB-435 [1] = assay: Cytotoxicity against human MDA-MB-435 cells assessed as cell growth level at 100 uM after 48 hrs by sulforhodamine B assay
OVCAR-3 = assay: Cytotoxicity against human OVCAR3 cells assessed as cell growth level at 100 uM after 48 hrs by sulforhodamine B assay
OVCAR-4 = assay: Cytotoxicity against human OVCAR4 cells assessed as cell growth level at 100 uM after 48 hrs by sulforhodamine B assay
OVCAR-5 = assay: Cytotoxicity against human OVCAR5 cells assessed as cell growth level at 100 uM after 48 hrs by sulforhodamine B assay
786-0 = assay: Cytotoxicity against human 786-0 cells assessed as cell growth level at 100 uM after 48 hrs by sulforhodamine B assay
UO-31 [2] = assay: Cytotoxicity against human UO31 cells assessed as cell growth level at 100 uM after 48 hrs by sulforhodamine B assay
MCF7 = assay: Cytotoxicity against human MCF7 cells assessed as cell growth level at 100 uM after 48 hrs by sulforhodamine B assay
HCT-15 [3] = assay: Cytotoxicity against human HCT15 cells assessed as cell growth level at 10 nM after 48 hrs by sulforhodamine B assay
SF-295 [4] = assay: Cytotoxicity against human SF295 cells assessed as cell growth level at 10 nM after 48 hrs by sulforhodamine B assay
U-251 [5] = assay: Cytotoxicity against human U251 cells assessed as cell growth level at 10 nM after 48 hrs by sulforhodamine B assay
HCT-116 [6] = assay: Cytotoxicity against human HCT116 cells assessed as cell growth level at 100 nM after 48 hrs by sulforhodamine B assay
SF-295 [7] = assay: Cytotoxicity against human SF295 cells assessed as cell growth level at 100 nM after 48 hrs by sulforhodamine B assay
LOX IMVI = assay: Cytotoxicity against human LOXIMVI cells assessed as cell growth level at 100 nM after 48 hrs by sulforhodamine B assay
MDA-MB-435 [8] = assay: Cytotoxicity against human MDA-MB-435 cells assessed as cell growth level at 100 nM after 48 hrs by sulforhodamine B assay
Bacillus subtilis = assay: Antibacterial activity against Bacillus subtilis assessed as bacterial growth inhibition at 50 ug/ml after 24 hrs by cup-plate agar diffusion method; conditions: read-out: IZ
RPMI-8226 [9] = assay: Cytotoxicity against human RPMI8226 cells assessed as cell growth level at 10 uM after 48 hrs by sulforhodamine B assay
BT-549 = assay: Cytotoxicity against human BT549 cells assessed as cell growth level at 100 nM after 48 hrs by sulforhodamine B assay
RPMI-8226 [10] = assay: Cytotoxicity against human RPMI8226 cells assessed as cell growth level at 1 uM after 48 hrs by sulforhodamine B assay
COLO 205 = assay: Cytotoxicity against human COLO205 cells assessed as cell growth level at 1 uM after 48 hrs by sulforhodamine B assay
HCT-116 [11] = assay: Cytotoxicity against human HCT116 cells assessed as cell growth level at 10 uM after 48 hrs by sulforhodamine B assay
HCT-15 [12] = assay: Cytotoxicity against human HCT15 cells assessed as cell growth level at 10 uM after 48 hrs by sulforhodamine B assay
UACC-257 = assay: Cytotoxicity against human UACC257 cells assessed as cell growth level at 10 uM after 48 hrs by sulforhodamine B assay
UO-31 [13] = assay: Cytotoxicity against human UO31 cells assessed as cell growth level at 10 uM after 48 hrs by sulforhodamine B assay
SK-MEL-28 = assay: Cytotoxicity against human SK-MEL-28 cells assessed as cell growth level at 1 uM after 48 hrs by sulforhodamine B assay
IGROV-1 [14] = assay: Cytotoxicity against human IGROV1 cells assessed as cell growth level at 1 uM after 48 hrs by sulforhodamine B assay
PC-3 [15] = assay: Cytotoxicity against human PC3 cells assessed as cell growth level at 1 uM after 48 hrs by sulforhodamine B assay
HOP-62 = assay: Cytotoxicity against human HOP62 cells assessed as cell growth level at 100 uM after 48 hrs by sulforhodamine B assay
SR = assay: Cytotoxicity against human SR cells after 48 hrs by sulforhodamine B assay
NCI-H322M = assay: Cytotoxicity against human NCI-H322M cells after 48 hrs by sulforhodamine B assay
U-251 [16] = assay: Cytotoxicity against human U251 cells after 48 hrs by sulforhodamine B assay; conditions: U-251, 48 h
KM12 = assay: Cytotoxicity against human KM12 cells assessed as cell growth level at 100 uM after 48 hrs by sulforhodamine B assay
SF-539 = assay: Cytotoxicity against human SF539 cells assessed as cell growth level at 100 uM after 48 hrs by sulforhodamine B assay
IGROV-1 [17] = assay: Cytotoxicity against human IGROV1 cells after 48 hrs by sulforhodamine B assay; conditions: IGROV-1, 48 h
CAKI-1 = assay: Cytotoxicity against human CAKI-1 cells after 48 hrs by sulforhodamine B assay; conditions: CAKI-1, 48 h
SN12C = assay: Cytotoxicity against human SN12C cells after 48 hrs by sulforhodamine B assay
PC-3 [18] = assay: Cytotoxicity against human PC3 cells after 48 hrs by sulforhodamine B assay; conditions: PC-3, 48 h
A549 = assay: Cytotoxicity against human A549/ATCC cells assessed as cell growth level at 10 nM after 48 hrs by sulforhodamine B assay
[19] = read-out: LC50 (the source's name)
[20] = read-out: pLC50 (the source's name) (converted)

**Q.** Which Activity (MDA-MB-435 [1]) does the source give for `O=c1oc2ccccc2cc1-c1csc(N/N=C/c2c[nH]c3ccccc23)n1` here?
**A.** Its Activity is -69%.

**Q.** And the Activity (OVCAR-3)?
**A.** The Activity was -2%.

**Q.** What about the Activity (OVCAR-4) of the same compound?
**A.** Its Activity is -24%.

**Q.** What about the Activity (OVCAR-5) of the same compound?
**A.** The Activity was -36%.

**Q.** And the Activity (786-0)?
**A.** Its Activity is -27%.

**Q.** What about the Activity (UO-31 [2]) of the same compound?
**A.** Its Activity is -52%.

**Q.** What about the Activity (MCF7) of the same compound?
**A.** The Activity was -60%.

**Q.** And the Activity (HCT-15 [3])?
**A.** The Activity was 95%.

**Q.** And the Activity (SF-295 [4])?
**A.** The Activity was 93%.

**Q.** What about the Activity (U-251 [5]) of the same compound?
**A.** Its Activity is 100%.

**Q.** And the Activity (HCT-116 [6])?
**A.** Its Activity is 91%.

**Q.** And the Activity (SF-295 [7])?
**A.** Its Activity is 97%.

**Q.** And the Activity (LOX IMVI)?
**A.** Its Activity is 92%.

**Q.** And the Activity (MDA-MB-435 [8])?
**A.** The Activity was 99%.

**Q.** What about the zone of inhibition at 50 µg/mL (Bacillus subtilis) of the same compound?
**A.** The zone of inhibition at 50 µg/mL was 18 mm.

**Q.** What about the Activity (RPMI-8226 [9]) of the same compound?
**A.** The Activity was -33.83%.

**Q.** And the Activity (BT-549)?
**A.** The Activity was 88%.

**Q.** What about the Activity (RPMI-8226 [10]) of the same compound?
**A.** The Activity was 48%.

**Q.** And the Activity (COLO 205)?
**A.** The Activity was 109%.

**Q.** What about the Activity (HCT-116 [11]) of the same compound?
**A.** The Activity was 7.48%.

**Q.** And the Activity (HCT-15 [12])?
**A.** Its Activity is 12.32%.

**Q.** What about the Activity (UACC-257) of the same compound?
**A.** Its Activity is 8.34%.

**Q.** And the Activity (UO-31 [13])?
**A.** Its Activity is -90.51%.

**Q.** What about the Activity (SK-MEL-28) of the same compound?
**A.** The Activity was 93%.

**Q.** What about the Activity (IGROV-1 [14]) of the same compound?
**A.** The Activity was 58%.

**Q.** What about the Activity (PC-3 [15]) of the same compound?
**A.** The Activity was 84%.

**Q.** What about the Activity (HOP-62) of the same compound?
**A.** Its Activity is -24%.

**Q.** And the GI50 (SR; read-out: GI50)?
**A.** The GI50 was 1830 nM.

**Q.** And the LC50 (SR; read-out: LC50)?
**A.** Its LC50 is > 100 µM.

**Q.** And the TGI (SR; read-out: TGI)?
**A.** Its TGI is 4.92 µM.

**Q.** What about the GI50 (SR; read-out: pGI50 (converted)) of the same compound?
**A.** The GI50 was 1820 nM.

**Q.** And the LC50 (SR; read-out: pLC50 (converted))?
**A.** The LC50 was > 100 µM.

**Q.** And the TGI (SR; read-out: pTGI (converted))?
**A.** The TGI was 4.9 µM.

**Q.** What about the GI50 (NCI-H322M; read-out: GI50) of the same compound?
**A.** The GI50 was 3.16 µM.

**Q.** And the LC50 (concentration killing 50% of cells) (NCI-H322M; read-out: LC50)?
**A.** The LC50 (concentration killing 50% of cells) was > 100 µM.

**Q.** What about the TGI (NCI-H322M; read-out: TGI) of the same compound?
**A.** Its TGI is 32.2 µM.

**Q.** What about the GI50 (NCI-H322M; read-out: pGI50 (converted)) of the same compound?
**A.** The GI50 was 3.16 µM.

**Q.** And the LC50 (concentration killing 50% of cells) (NCI-H322M; read-out: pLC50 (converted))?
**A.** Its LC50 (concentration killing 50% of cells) is > 100 µM.

**Q.** And the TGI (NCI-H322M; read-out: pTGI (converted))?
**A.** The TGI was 32.4 µM.

**Q.** And the GI50 (U-251 [16]; read-out: GI50)?
**A.** The GI50 was 1750 nM.

**Q.** What about the CC50 (U-251 [16]; [19]) of the same compound?
**A.** Its CC50 is 77.7 µM.

**Q.** What about the TGI (U-251 [16]; read-out: TGI) of the same compound?
**A.** Its TGI is 5.6 µM.

**Q.** What about the GI50 (U-251 [16]; read-out: pGI50 (converted)) of the same compound?
**A.** Its GI50 is 1740 nM.

**Q.** What about the CC50 (U-251 [16]; [20]) of the same compound?
**A.** The CC50 was 77.6 µM.

**Q.** What about the TGI (U-251 [16]; read-out: pTGI (converted)) of the same compound?
**A.** The TGI was 5.62 µM.

**Q.** What about the Activity (KM12) of the same compound?
**A.** Its Activity is -52%.

**Q.** What about the Activity (SF-539) of the same compound?
**A.** The Activity was -4%.

**Q.** And the GI50 (IGROV-1 [17]; read-out: GI50)?
**A.** Its GI50 is 1540 nM.

**Q.** What about the CC50 (IGROV-1 [17]; [19]) of the same compound?
**A.** The CC50 was > 100 µM.

**Q.** What about the TGI (IGROV-1 [17]; read-out: TGI) of the same compound?
**A.** Its TGI is 4.7 µM.

**Q.** What about the GI50 (IGROV-1 [17]; read-out: pGI50 (converted)) of the same compound?
**A.** Its GI50 is 1550 nM.

**Q.** What about the CC50 (IGROV-1 [17]; [20]) of the same compound?
**A.** Its CC50 is > 100 µM.

**Q.** What about the TGI (IGROV-1 [17]; read-out: pTGI (converted)) of the same compound?
**A.** Its TGI is 4.68 µM.

**Q.** What about the GI50 (CAKI-1; read-out: GI50) of the same compound?
**A.** The GI50 was 1610 nM.

**Q.** And the CC50 (CAKI-1; [19])?
**A.** The CC50 was > 100 µM.

**Q.** And the TGI (CAKI-1; read-out: TGI)?
**A.** The TGI was 4.65 µM.

**Q.** And the GI50 (CAKI-1; read-out: pGI50 (converted))?
**A.** Its GI50 is 1620 nM.

**Q.** And the CC50 (CAKI-1; [20])?
**A.** The CC50 was > 100 µM.

**Q.** What about the TGI (CAKI-1; read-out: pTGI (converted)) of the same compound?
**A.** Its TGI is 4.68 µM.

**Q.** What about the GI50 (SN12C; read-out: GI50) of the same compound?
**A.** The GI50 was 1080 nM.

**Q.** And the CC50 (SN12C; [19])?
**A.** Its CC50 is > 100 µM.

**Q.** And the TGI (SN12C; read-out: TGI)?
**A.** Its TGI is 3.96 µM.

**Q.** And the GI50 (SN12C; read-out: pGI50 (converted))?
**A.** The GI50 was 1070 nM.

**Q.** And the CC50 (SN12C; [20])?
**A.** The CC50 was > 100 µM.

**Q.** And the TGI (SN12C; read-out: pTGI (converted))?
**A.** Its TGI is 3.98 µM.

**Q.** What about the GI50 (PC-3 [18]; read-out: GI50) of the same compound?
**A.** The GI50 was 828 nM.

**Q.** What about the CC50 (PC-3 [18]; [19]) of the same compound?
**A.** Its CC50 is 7.63 µM.

**Q.** What about the TGI (PC-3 [18]; read-out: TGI) of the same compound?
**A.** Its TGI is 2660 nM.

**Q.** And the GI50 (PC-3 [18]; read-out: pGI50 (converted))?
**A.** The GI50 was 832 nM.

**Q.** And the CC50 (PC-3 [18]; [20])?
**A.** Its CC50 is 7.59 µM.

**Q.** What about the TGI (PC-3 [18]; read-out: pTGI (converted)) of the same compound?
**A.** The TGI was 2630 nM.

**Q.** And the Activity (A549)?
**A.** The Activity was 94%.
